Reference: patent US10282841B1, “Bioinformatic analysis of vascular patterning” (The United States of America as Represented by the …, priority 2011, dated 2019)
Like-named read-outs stand apart in the source and are kept apart here.

Assays:
[1] = test system: avian chorioallantoic membrane; format: in vivo
From the text: To develop the VESGEN system mapping capabilities, proangiogenesis and antiangiogenesis factors were first studied in the avian chorioallantoic membrane, a well-established, experimentally convenient 2D, optically accessible model of microvascular remodeling, angiogenesis and angiogenesis therapeutics.

[2] = test system: blood vessels; experiment: VESGEN analysis of regulators of blood vessel growth by vessel branching generation; format: in vivo; conditions: for vessel number, density or diameter for larger pre-existing vessels: larger pre-existing vessels of G1-G4
From the text: The stimulator bFGF and inhibitor TGF-beta1 may be regarded as robust but simple regulators of blood vessel growth, because of their selective regulation of the growth of new small vessels. Other important regulators like vascular endothelial growth factor-165 (VEGF-165), also known as vascular permeability factor (VPF), are more complex in their regulatory activities. […] All healthy and unhealthy (abnormal) fluid shifts in the body are tightly regulated by the small vessels (vascular and lymphatic capillaries) except during trauma such as flesh wounds. The VESGEN system may support analysis of such retinal and brain vascular changes mediating the fluid shifts from images of experimental animals and clinical diagnostic images of humans.

[3] = chorioallantoic membrane, with higher concentrations

transforming growth factor beta-1 [transforming growth factor (TGF) β-1]
vascular morphology on inhibition of angiogenesis ([1]; avian chorioallantoic membrane): retained a normal vascular morphology
vessel number, density or diameter for larger pre-existing vessels [2]: did not affect
growth of new small vessels of vessel generation G5 and greater [2]: inhibition of the growth of new small vessels of vessel generation G5 and greater

vascular endothelial growth factor-165 [VEGF]
diameter of larger vessels ([1]; avian chorioallantoic membrane, at high concentrations): significantly dilated
growth of new small vessels ([1]; avian chorioallantoic membrane, at low concentrations): stimulated the growth of new small vessels
vessel density ([1]; chorioallantoic membrane, at low concentrations): increased
diameters of larger arteries [1, 3]: increasing diameters of larger arteries
vessel density [1, 3]: progressively decreasing vessel density
vessel leakage, vessel swelling and vessel tortuosity ([2]; blood vessel morphology): induction of vessel leakage, vessel swelling and vessel tortuosity
growth and swelling of the associated lymphatic vascular system ([2]; lymphatic vascular system): stimulates the growth and swelling of the associated lymphatic vascular system
growth of new small vessels of vessel generation G5 and greater [2]: stimulation of the growth of new, small blood vessels

angiostatin
vascular morphology on inhibition of angiogenesis ([1]; avian chorioallantoic membrane): rendered the vascular tree highly abnormal and irregular

basic fibroblast growth factor [bFGF]
growth of small vessels ([1]; avian chorioallantoic membrane): stimulated specifically the robust growth of many small vessels
vessel number, density or diameter for larger pre-existing vessels [2]: did not affect
growth of new small vessels of vessel generation G5 and greater [2]: stimulation of the growth of new small vessels of vessel generation G5 and greater
